Like-named read-outs stand apart in the source and are kept apart here.
Tests used:
[1] = test system: cholesterol absorption; experiment: animal or person; format: in vivo, normal rat
[2] = molecular target: cholesterol ester hydrolase (Homo sapiens, UniProt P19835); experiment: biochemical
[3] = Rattus norvegicus, po, 6 h, read-out: % Decrease ^14 C Chol. Absorption at 6 hr in normal rat

Sequence of cholesterol ester hydrolase (P19835 21-753): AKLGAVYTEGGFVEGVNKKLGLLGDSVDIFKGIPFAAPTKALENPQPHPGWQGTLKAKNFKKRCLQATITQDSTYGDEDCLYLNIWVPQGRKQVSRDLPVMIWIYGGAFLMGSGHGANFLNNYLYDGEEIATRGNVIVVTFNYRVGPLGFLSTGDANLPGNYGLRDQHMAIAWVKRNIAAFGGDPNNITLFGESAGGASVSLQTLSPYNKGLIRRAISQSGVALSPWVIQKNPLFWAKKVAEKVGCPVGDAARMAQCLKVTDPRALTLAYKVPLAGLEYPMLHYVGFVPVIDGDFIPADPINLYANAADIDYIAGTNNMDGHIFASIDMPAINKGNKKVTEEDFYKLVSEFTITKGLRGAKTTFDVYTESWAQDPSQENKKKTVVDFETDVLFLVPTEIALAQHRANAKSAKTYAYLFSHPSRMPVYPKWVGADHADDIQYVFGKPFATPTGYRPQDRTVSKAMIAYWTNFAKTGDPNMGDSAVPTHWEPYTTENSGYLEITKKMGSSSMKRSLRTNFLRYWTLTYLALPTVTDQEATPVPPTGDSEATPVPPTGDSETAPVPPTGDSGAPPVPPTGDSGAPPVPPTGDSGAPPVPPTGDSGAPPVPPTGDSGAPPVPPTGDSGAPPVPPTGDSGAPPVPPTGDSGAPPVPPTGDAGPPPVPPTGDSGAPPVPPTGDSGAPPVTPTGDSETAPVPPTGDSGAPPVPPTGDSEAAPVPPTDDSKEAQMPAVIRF

Structure (SMILES): CCCCCCCCNC(=O)ON=C(C1=CC(=O)C(C)(C)O1)c1ccccc1 [Example 1, 2,2-Dimethyl-5-[[[[(octylamino)carbonyl]oxy]imino]phenylmethyl]-3(2H)-furanone]
- inhibition in vivo at 100 mg/kg [1, 3]: 39%
- IC50 [2]: 1.9 µM

Structure (SMILES): CCCCCCCCCCCCNC(=O)ON=C(C1=CC(=O)C(C)(C)O1)c1ccccc1 [Example 2, 2,2-Dimethyl-5-[[[[(dodecylamino)carbonyl]oxy]imino]phenylmethyl]-3(2H)-furanone]
- inhibition in vivo at 100 mg/kg [1, 3]: 76%
- IC50 [2]: 0.57 µM

Structure (SMILES): CC1(C)CCC(NC(=O)ON=C(C2=CC(=O)C(C)(C)O2)c2ccccc2)CC1 [Example 3, 2,2-Dimethyl-5-[[[[[(4,4dimethylcyclohexyl)amino]carbonyl]oxy]imino]phenylmethyl]-3(2H)-furanone]
- inhibition in vivo at 100 mg/kg [1, 3]: 44%
- IC50 [2]: 0.1 µM

Structure (SMILES): CCCCCCCC/C=C\CCCCCCCCNC(=O)ON=C(C1=CC(=O)C(C)(C)O1)c1ccccc1 [Example 4, 2,2-Dimethyl-5-[[[[[(Z)-9-octadecenylamino]carbonyl]oxy]imino]phenylmethyl]-3(2H)-furanone]
- inhibition in vivo at 100 mg/kg [1, 3]: 74%
- IC50 ([2]; read-out: IC50 against CEH): 5.4 µM

Structure (SMILES): CCCCCCCC/C=C/CCCCCCCCCNC(=O)ON=C(C1=CC(=O)C(C)(C)O1)c1ccccc1 [Example 5, 2,2-Dimethyl-5-[[[[[(E)-10-nonadecenylamino]carbonyl]oxy]imino]phenylmethyl]-3(2H)-furanone]
- inhibition in vivo at 25 mg/kg [1, 3]: 39%
- IC50 [2]: 25 µM

Structure (SMILES): CCCCC/C=C/C/C=C/CCCCCCCCNC(=O)ON=C(C1=CC(=O)C(C)(C)O1)c1ccccc1 [Example 6, 2,2-Dimethyl-5-[[[[[(E,E)-9, 12-octadecadienylamino]carbonyl]oxy]imino]phenylmethyl]-3(2H)-furanone]
- inhibition in vivo at 25 mg/kg [1, 3]: 50%
- IC50 [2]: 2.7 µM

Structure (SMILES): CCCCCCCCNC(=O)ON=C(C1=CC(=O)C(C)(C2CCCCC2)O1)c1ccccc1 (centres unmarked) [Example 7, 2-Cyclohexyl-2-methyl-5-[[[[(octylamino)carbonyl]oxy]imino]phenylmethyl]-3(2H)-furanone]
- inhibition in vivo at 100 mg/kg [1, 3]: 47%
- IC50 [2]: 1.9 µM

Structure (SMILES): CCCCCCCCNC(=O)ON=C(C1=CC(=O)C(C)(c2ccccc2)O1)c1ccccc1 (centres unmarked) [Example 8]
- inhibition in vivo at 100 mg/kg [1, 3]: 46%
- IC50 [2]: 0.13 µM

Structure (SMILES): CCCCCCCCNC(=O)ON=C(C1=CC(=O)C(C)(c2ccc(Cl)cc2)O1)c1ccccc1 (centres unmarked) [Example 9, 2-(4-Chlorophenyl)-2-methyl-5-[[[[(octylamino)carbonyl]oxy]imino]phenylmethyl]-3(2H)-furanone]
- inhibition in vivo at 100 mg/kg [1, 3]: 62%
- IC50 [2]: 2.64 µM

Structure (SMILES): CCCCCCCCNC(=O)ON=C(C1=CC(=O)C(C)(c2ccc(C(C)(C)C)cc2)O1)c1ccccc1 (centres unmarked) [Example 10, 2-[4-(1,1-Dimethylethyl)phenyl]-2-methyl-5-[[[[(octylamino)carbonyl]oxy]imino]phenylmethyl]-3(2H)-furanone]
- inhibition in vivo at 100 mg/kg [1, 3]: 46%
- IC50 [2]: 12.7 µM

Structure (SMILES): CCCCCCCCNC(=O)ON=C(CCc1ccccc1)C1=CC(=O)C(C)(C)O1 [Example 11]
- inhibition in vivo at 100 mg/kg [1, 3]: 57%
- IC50 [2]: 1.5 µM

Structure (SMILES): CCCCCCCCCCCCNC(=O)ON=C(C1=C(Br)C(=O)C(C)(C)O1)c1ccccc1 [Example 12, 2,2-Dimethyl-4-bromo-5-[[[[(dodecylamino)carbonyl]oxy]imino]phenylmethyl]3(2H)-furanone]
- inhibition in vivo at 100 mg/kg [1, 3]: 69%
- IC50 [2]: 2.27 µM

Structure (SMILES): CCCCCCCCCCCCNC(=O)ON=C(C1=CC(=O)C(C)(C)O1)c1ccc(Cl)cc1 [Example 13]
- inhibition in vivo at 100 mg/kg [1, 3]: 63%
- IC50 [2]: 10 µM

Structure (SMILES): O=C(NC1CCCCC1)ON=C(c1ccccc1)c1ccccn1 [Example 14, Phenyl(2-pyridinyl)methanone O-[(cyclohexylamino)carbonyl]oxime]
- inhibition in vivo at 100 mg/kg [1, 3]: 44%
- IC50 [2]: 1.4 µM

Structure (SMILES): CCCCCCCCNC(=O)ON=C(c1ccccn1)c1ccccn1 [Example 16, Di(2-pyridinyl)methanone O-[(octylamino)carbonyl]oxime]
- inhibition in vivo at 50 mg/kg [1, 3]: 39%
- IC50 [2]: 2.77 µM

Structure (SMILES): CCCCCCCCNC(=O)ON=C(c1ccc(F)cc1)c1ccccn1 [Example 17, (4-Fluorophenyl)(2-pyridinyl)methanone O-[(octylamino)carbonyl]oxime]
- inhibition in vivo at 50 mg/kg [1, 3]: 57%
- IC50 [2]: 0.44 µM

Structure (SMILES): CCCCCCCCNC(=O)ON=C(c1ccc(OC)cc1)c1ccccn1 [Example 18, (4-Methoxyphenyl)(2-pyridinyl)methanone O-[(octylamino)carbonyl]oxime]
- inhibition in vivo at 65 mg/kg [1, 3]: 45%
- IC50 [2]: 2.1 µM

Structure (SMILES): CCCCNC(=O)ON=C(c1ccc(N(C)C)cc1)c1ccccn1 [Example 20]
- % Decrease ^14 C Chol. Absorption at 6 hr in normal rat ([1]; rat, in vivo): 51%

— patent publication US5438056A (priority 1993, dated 1995)
